Measured values: PMC6920997, “Total Phenolic and Flavonoid Content and Biological Activities of Extracts and Isolated Compounds of Cytisus villosus Pourr” (Biomolecules, 2019)
≈ marks a conversion by molar mass, not a printed value. Like-named read-outs stand apart in the source and are kept apart here. Each block holds one compound with its values, some of them ahead of it.

What was measured:
P. falciparum (D6 Clone) = assay: Antimalarial assay, chloroquine-sensitive D6 clone; assay type: cell-based, Plasmodium falciparum
Text: (§1) The in vitro antileishmanial and antitrypanosomal assays were done on cell cultures of L. donovani promastigotes, axenic amastigotes, THP1-amastigotes, and Trypanosoma brucei trypomastigotes by Alamar Blue assays. The conditions for seeding the THP1 cells, exposure to the test samples, and evaluation of cytotoxicity were the same as described in parasite-rescue and transformation assay. IC50 and IC90 values were computed from the dose response curves using XLfit software (XLfit 5.3.1, IDBS analytical, Boston MA, USA). DFMO (difluoromethylornithine) was used as the positive control. The antiprotozoal activity of C. villosus extracts and isolated compounds were evaluated in vitro against L. donovani promastigotes, axenic amastigotes, and intracellular amastigotes in THP1 cells. The extracts and some isolated compounds were also evaluated against T. brucei trypomastigote forms. All the extracts and compounds were simultaneously tested against THP1 cell for determination of general cytotoxicity. The extracts and isolated compounds were also evaluated for their antimalarial activity against chloroquine-sensitive (D6, Sierra Leone) and chloroquine-resistant strains (W2, Indochina) strains of Plasmodium falciparum. Furthermore, they were tested for cytotoxicity against the Vero cell line.

P. falciparum (W2 Clone) = assay: Antimalarial assay, chloroquine-resistant W2 clone; assay type: cell-based, Plasmodium falciparum
Text: as §1

[1] = Cytotoxicity against Vero cell line (antimalarial counterscreen); assay type: cell-based; conditions: African green monkey; column head does not name the cells; read-out: IC50 (third IC50 column of Table 7, presumably Vero cytotoxicity)
Text: as §1

[2] = tested on: Trypanosoma brucei trypomastigotes; assay: Antitrypanosomal Alamar Blue assay; assay type: cell-based; conditions: Table 4; for IC50: read-out: T. brucei IC50; for IC90: read-out: T. brucei IC90
Text: as §1

Candida albicans = assay: Antifungal assay C. albicans; assay type: cell-based; conditions: Concentration: 50 μg/mL, <50 considered inactive, read-out: % Growth Inhibition C. albicans
Procedure: (§2) Extracts and pure compounds were tested for their antimicrobial activity against Staphylococcus aureus, methicillin-resistant S. aureus (MRSA), Escherichia coli, Pseudomonas aeruginosa, and Mycobacterium intracellulare. The antifungal activities were evaluated against a panel of pathogenic fungi, including Candida albicans, C. glabrata, C. krusei, Aspergillus fumigatus, and Cryptococcus neoformans, associated with opportunistic infections.

Cryptococcus neoformans = assay: Antifungal assay C. neoformans; assay type: cell-based; conditions: Concentration: 50 μg/mL, <50 considered inactive, read-out: % Growth Inhibition C. neoformans
Procedure: as §2

[3] = tested on: methicillin-resistant S. aureus (MRSA); assay: Antibacterial assay MRSA; assay type: cell-based; conditions: Staphylococcus aureus, Concentration: 50 μg/mL, <50 considered inactive, read-out: % Growth Inhibition MRSA
Procedure: as §2

Escherichia coli = assay: Antibacterial assay E. coli; assay type: cell-based; conditions: Concentration: 50 μg/mL, <50 considered inactive, read-out: % Growth Inhibition E. coli
Procedure: as §2

Pseudomonas aeruginosa = assay: Antibacterial assay P. aeruginosa; assay type: cell-based; conditions: Concentration: 50 μg/mL, <50 considered inactive, read-out: % Growth Inhibition P. aeruginosa
Procedure: as §2

[4] = tested on: L. donovani promastigotes; assay: Antileishmanial Alamar Blue assay, promastigotes; assay type: cell-based; conditions: Leishmania donovani
Text: as §1

[5] = tested on: L. donovani axenic amastigotes; assay: Antileishmanial Alamar Blue assay, axenic amastigotes; assay type: cell-based; conditions: Leishmania donovani
Text: as §1

[6] = tested on: L. donovani intracellular amastigotes in THP1 cells; assay: Antileishmanial assay, intracellular amastigotes in THP1 cells; assay type: cell-based; conditions: Leishmania donovani
Text: as §1

THP1 cytotoxicity = assay type: cell-based; conditions: human
Text: as §1

THP1 cells = assay: THP1 cytotoxicity; assay type: cell-based; conditions: human
Text: as §1

[7] = DPPH radical scavenging assay; conditions: mean ± SD of three measurements
Procedure: The antioxidant activity of the extracts and pure isolated compounds was determined by applying the 2,2-diphenyl-1-picrylhydrazyl (DPPH) radical scavenging method.

[8] = Cytotoxicity assay (neutral red) SK-MEL; assay type: cell-based; conditions: human, SK-MEL cells, NA = No activity at 100 μM
Procedure: (§3) Each assay was performed in 96-well tissue culture-treated microplates. […] All cell lines were obtained from the American Type Culture Collection (ATCC, Rockville, MD, USA). Each assay was performed in 96-well tissue culture-treated microplates. Cells were seeded at a density of 25,000 cells/well and incubated for 24 h. Samples at different concentrations were added and cells were again incubated for 48 h. At the end of incubation, the cell viability was determined using neutral red dye according to a modification of the procedure of Borenfreund et al.. IC50 values were determined from dose−response curves of percent growth inhibition against test concentrations. Doxorubicin was used as a positive control, while DMSO was used as the negative (vehicle) control.

[9] = Cytotoxicity assay (neutral red) KB; assay type: cell-based; conditions: human, KB cells, NA = No activity at 100 μM
Procedure: as §3

[10] = Cytotoxicity assay (neutral red) BT-549; assay type: cell-based; conditions: human, BT-549 cells, NA = No activity at 100 μM
Procedure: as §3

[11] = Cytotoxicity assay (neutral red) SK-OV-3; assay type: cell-based; conditions: human, SK-OV-3 cells, NA = No activity at 100 μM
Procedure: as §3

[12] = Cytotoxicity assay (neutral red) LLC-PK1; assay type: cell-based; conditions: pig, LLC-PK1 cells (noncancerous kidney cells), NC = Not cytotoxic
Procedure: as §3

[13] = selectivity index = IC50 for cytotoxicity/IC50 for antimalarial activity

SMILES: CCN(CC)CCCC(C)Nc1ccnc2cc(Cl)ccc12 (centres unmarked) [CQ, Chloroquine, reference compound]
inhibition at 0.0793 µg/mL (P. falciparum (D6 Clone); Plasmodium falciparum, D6, read-out: %Inhibition P. falciparum (D6 Clone)): 100%
IC50 (P. falciparum (D6 Clone); Plasmodium falciparum, read-out: IC50): < 0.026 µg/mL
SI (first SI column of Table 7, presumably D6) (P. falciparum (D6 Clone); [13]): >9
IC50 (P. falciparum (W2 Clone); Plasmodium falciparum, W2, read-out: IC50 (second IC50 column of Table 7, presumably P. falciparum W2)): 0.116 µg/mL (≈ 0.363 µM)
SI (second SI column of Table 7, presumably W2) (P. falciparum (W2 Clone); [13]): >2.1
IC50 [1]: > 0.238 µg/mL

IC50 [2]: 3.63 µM
IC90 [2]: 8.8 µM
SMILES: NCCCC(N)(C(=O)O)C(F)F (centres unmarked) [DFMO, difluoromethylornithine, reference compound]

SMILES: O=C(O)c1cn(C2CC2)c2cc(N3CCNCC3)c(F)cc2c1=O [CIPRO, Ciprofloxacin, reference compound]
inhibition at 50 µg/mL (Candida albicans): 0%
inhibition at 50 µg/mL (Cryptococcus neoformans): 0%
inhibition at 50 µg/mL [3]: 0%
inhibition at 50 µg/mL (Escherichia coli): 100%
inhibition at 50 µg/mL (Pseudomonas aeruginosa): 96%

IC50 ([4]; read-out: L. donovani Promastigote IC50): 1.48 µM
IC90 ([4]; read-out: L. donovani Promastigote IC90): 2.38 µM
IC50 ([5]; read-out: L. donovani Amastigote IC50): 9.58 µM
IC90 ([5]; read-out: L. donovani Amastigote IC90): > 10 µM
IC50 ([6]; THP-1, read-out: L. donovani Amastigote/THP1 IC50): 1.16 µM
IC90 ([6]; THP-1, read-out: L. donovani Amastigote/THP1 IC90): 5.59 µM
IC50 ([2]; Trypanosoma brucei): 0.001 µM
IC90 ([2]; Trypanosoma brucei): 0.002 µM
SMILES: N=C(N)c1ccc(OCCCCCOc2ccc(C(=N)N)cc2)cc1 [Pentamidine, reference compound]
IC50 (THP1 cytotoxicity): > 10 µM
THP1 Cytotoxicity C90 (THP1 cells): >10 µM

DPPH Scavenging IC50 [7]: 43 ± 6 µg/mL
SMILES: O=C1O[C@H]([C@@H](O)CO)C(O)=C1O [Ascorbic acid]

SMILES: COc1cccc2c1C(=O)c1c(O)c3c(c(O)c1C2=O)C[C@@](O)(C(=O)CO)C[C@@H]3O[C@H]1C[C@H](N)[C@H](O)[C@H](C)O1 [doxorubicin, Doxorubicin]
IC50 at 48 h [8]: 0.8 µg/mL (≈ 1.47 µM)
IC50 at 48 h [9]: 1.3 µg/mL (≈ 2.39 µM)
IC50 at 48 h [10]: 0.9 µg/mL (≈ 1.66 µM)
IC50 at 48 h [11]: 2 µg/mL (≈ 3.68 µM)
IC50 at 48 h [12]: 1.2 µg/mL (≈ 2.21 µM)
